Measured values: patent publication US6737383B1, “Herbicidal oxadiazolidines” (priority 1999, dated 2004)

What was measured:
rice = assay: Test B flood test rice; type: in vivo, Oryza sativa
Method in brief: (§1)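 Read-out is a visual response score from 0 (no effect) to 10 (complete control), assigned by comparison with untreated controls. Treatment was applied at the 2-leaf stage, and plants stayed in the greenhouse for twelve to sixteen days before scoring.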

blackgrass = assay: Test B pre/postemergence blackgrass; type: in vivo, Alopecurus myosuroides
Method in brief: (§2)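 Herbicidal effect was estimated by eye on a ten-point control scale after plants spent twelve to sixteen days in a greenhouse following soil or foliar treatment. Foliar sprays targeted plants at one to four leaves; all doses were formulated in a non-phytotoxic solvent with surfactant.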

bedstraw = assay: Test B pre/postemergence bedstraw; type: in vivo, Galium aparine
Method in brief: as §2

cocklebur = assay: Test B pre/postemergence cocklebur; type: in vivo, Xanthium strumarium
Method in brief: as §2

surinam grass = assay: Test B pre/postemergence surinam grass; type: in vivo, Brachiaria decumbens
Method in brief: as §2

giant foxtail = assay: Test B pre/postemergence giant foxtail; type: in vivo, Setaria faberii
Method in brief: as §2

rape = assay: Test B pre/postemergence rape; type: in vivo, Brassica napus
Method in brief: as §2

morningglory = assay: Test B pre/postemergence morningglory; type: in vivo, Ipomoea hederacea
Method in brief: as §2

velvetleaf = assay: Test B pre/postemergence velvetleaf; type: in vivo, Abutilon theophrasti
Method in brief: as §2

sugar beet = assay: Test B pre/postemergence sugar beet; type: in vivo, Beta vulgaris
Method in brief: as §2

corn = assay: Test B pre/postemergence corn; type: in vivo, Zea mays
Method in brief: as §2

purple nutsedge = assay: Test B pre/postemergence purple nutsedge; type: in vivo, Cyperus rotundus
Method in brief: as §2

duck salad = assay: Test B flood test duck salad; type: in vivo, Heteranthera limosa
Method in brief: as §1

pigweed = assay: Test B pre/postemergence pigweed; type: in vivo, Amaranthus retroflexus
Method in brief: as §2

bamyardgrass = assay: Test B flood test barnyardgrass; type: in vivo, Echinochloa crus-galli
Method in brief: as §1

[1] = Postemergence, Rate 62 g/ha, scale 0 to 10, 0 is no effect, 10 is complete control
[2] = Rate 125 g/ha, Postemergence section (flood test species), scale 0 to 10, 0 no effect, 10 complete control
[3] = Rate 500 g/ha, Postemergence section of Table B, 0 to 10 scale (0 no effect, 10 complete control)
[4] = flood test, listed under Postemergence, Rate 250 g/ha, scale 0 to 10, 0 no effect, 10 complete control
[5] = Postemergence, Rate 250 g/ha, scale 0 to 10, 0 no effect, 10 complete control
[6] = Preemergence, Rate 31 g/ha, visual rating, scale 0 to 10 (0 no effect, 10 complete control)
[7] = Preemergence, Rate 62 g/ha, scale 0 to 10, 0 is no effect, 10 is complete control
[8] = Preemergence, Rate 125 g/ha, scale 0 to 10 (0 no effect, 10 complete control)
[9] = Preemergence, Rate 250 g/ha, scale of 0 to 10 where 0 is no effect and 10 is complete control
[10] = Rate 31 g/ha, Postemergence, scale 0 to 10
[11] = Rate 125 g/ha, Postemergence, scale 0 to 10, 0 no effect, 10 complete control

CCN(C(=O)n1oc(=O)n(-c2c(C)cccc2C)c1=O)C1CCCCC1 [Compound 27]
Rice plant response rating (rice; [1]): 0 | Rice plant response rating (rice; [2]): 0 | Rice plant response rating (rice; [3]): 2 | Rice plant response rating (rice; [4]): 0 | Blackgrass plant response rating (blackgrass; [1]): 0 | Blackgrass plant response rating (blackgrass; [5]): 0 | Blackgrass plant response rating (blackgrass; [6]): 0 | Plant response rating, Blackgrass (blackgrass; [7]): 0 | Plant response rating, Blackgrass (blackgrass; [8]): 0 | Plant response rating, Blackgrass (blackgrass; [9]): 0 | Blackgrass plant response rating (blackgrass; [10]): 0 | Blackgrass plant response rating (blackgrass; [11]): 0 | Bedstraw plant response rating (bedstraw; [1]): 0 | Bedstraw plant response rating (bedstraw; [5]): 0 | Bedstraw plant response rating (bedstraw; [6]): 0 | Plant response rating, Bedstraw (bedstraw; [7]): 0 | Plant response rating, Bedstraw (bedstraw; [8]): 0 | Plant response rating, Bedstraw (bedstraw; [9]): 0 | Bedstraw plant response rating (bedstraw; [10]): 0 | Bedstraw plant response rating (bedstraw; [11]): 0 | Cocklebur plant response rating (cocklebur; [1]): 0 | Cocklebur plant response rating (cocklebur; [5]): 0 | Cocklebur plant response rating (cocklebur; [6]): 0 | Plant response rating, Cocklebur (cocklebur; [7]): 0 | Plant response rating, Cocklebur (cocklebur; [8]): 0 | Plant response rating, Cocklebur (cocklebur; [9]): 0 | Cocklebur plant response rating (cocklebur; [10]): 0 | Cocklebur plant response rating (cocklebur; [11]): 0 | B. signalgrass plant response rating (surinam grass; [1]): 0 | B. signalgrass plant response rating (surinam grass; [5]): 0 | B. signalgrass plant response rating (surinam grass; [6]): 0 | Plant response rating, B. signalgrass (surinam grass; [7]): 0 | Plant response rating, B. signalgrass (surinam grass; [8]): 0 | Plant response rating, B. signalgrass (surinam grass; [9]): 0 | B. signalgrass plant response rating (surinam grass; [10]): 0 | B. signalgrass plant response rating (surinam grass; [11]): 0 | Giant foxtail plant response rating (giant foxtail; [1]): 0 | Giant foxtail plant response rating (giant foxtail; [5]): 0 | Giant foxtail plant response rating (giant foxtail; [6]): 0 | Plant response rating, Giant foxtail (giant foxtail; [7]): 0 | Plant response rating, Giant foxtail (giant foxtail; [8]): 0 | Plant response rating, Giant foxtail (giant foxtail; [9]): 0 | Giant foxtail plant response rating (giant foxtail; [10]): 0 | Giant foxtail plant response rating (giant foxtail; [11]): 0 | Rape plant response rating (rape; [1]): 0 | Rape plant response rating (rape; [5]): 0 | Rape plant response rating (rape; [6]): 0 | Plant response rating, Rape (rape; [7]): 0 | Plant response rating, Rape (rape; [8]): 0 | Plant response rating, Rape (rape; [9]): 0 | Rape plant response rating (rape; [10]): 0 | Rape plant response rating (rape; [11]): 0 | Morningglory plant response rating (morningglory; [1]): 0 | Morningglory plant response rating (morningglory; [5]): 0 | Morningglory plant response rating (morningglory; [6]): 0 | Plant response rating, Morningglory (morningglory; [7]): 0 | Plant response rating, Morningglory (morningglory; [8]): 0 | Plant response rating, Morningglory (morningglory; [9]): 0 | Morningglory plant response rating (morningglory; [10]): 0 | Morningglory plant response rating (morningglory; [11]): 0 | Velvetleaf plant response rating (velvetleaf; [1]): 0 | Velvetleaf plant response rating (velvetleaf; [5]): 0 | Velvetleaf plant response rating (velvetleaf; [6]): 0 | Plant response rating, Velvetleaf (velvetleaf; [7]): 0 | Plant response rating, Velvetleaf (velvetleaf; [8]): 0 | Plant response rating, Velvetleaf (velvetleaf; [9]): 0 | Velvetleaf plant response rating (velvetleaf; [11]): 0 | Sugarbeets plant response rating (sugar beet; [1]): 0 | Sugarbeets plant response rating (sugar beet; [5]): 0 | Sugarbeets plant response rating (sugar beet; [6]): 0 | Plant response rating, Sugarbeets (sugar beet; [7]): 0 | Plant response rating, Sugarbeets (sugar beet; [8]): 0 | Plant response rating, Sugarbeets (sugar beet; [9]): 0 | Sugarbeets plant response rating (sugar beet; [11]): 0 | Corn plant response rating (corn; [1]): 0 | Corn plant response rating (corn; [5]): 0 | Corn plant response rating (corn; [6]): 0 | Plant response rating, Corn (corn; [7]): 0 | Plant response rating, Corn (corn; [8]): 0 | Plant response rating, Corn (corn; [9]): 0 | Corn plant response rating (corn; [10]): 0 | Corn plant response rating (corn; [11]): 0 | Nutsedge plant response rating (purple nutsedge; [1]): 0 | Nutsedge plant response rating (purple nutsedge; [5]): 0 | Nutsedge plant response rating (purple nutsedge; [6]): 0 | Plant response rating, Nutsedge (purple nutsedge; [7]): 0 | Plant response rating, Nutsedge (purple nutsedge; [8]): 0 | Plant response rating, Nutsedge (purple nutsedge; [9]): 0 | Nutsedge plant response rating (purple nutsedge; [10]): 0 | Nutsedge plant response rating (purple nutsedge; [11]): 0 | Ducksalad plant response rating (duck salad; [1]): 0 | Ducksalad plant response rating (duck salad; [2]): 0 | Ducksalad plant response rating (duck salad; [3]): 0 | Ducksalad plant response rating (duck salad; [4]): 0 | Redroot pigweed plant response rating (pigweed; [1]): 0 | Redroot pigweed plant response rating (pigweed; [5]): 0 | Redroot pigweed plant response rating (pigweed; [6]): 0 | Plant response rating, Redroot pigweed (pigweed; [7]): 0 | Plant response rating, Redroot pigweed (pigweed; [8]): 0 | Plant response rating, Redroot pigweed (pigweed; [9]): 0 | Redroot pigweed plant response rating (pigweed; [10]): 0 | Redroot pigweed plant response rating (pigweed; [11]): 0 | Barnyardgrass plant response rating (bamyardgrass; [1]): 0 | Barnyardgrass plant response rating (bamyardgrass; [2]): 0 | Barnyardgrass plant response rating (bamyardgrass; [3]): 9 | Barnyardgrass plant response rating (bamyardgrass; [4]): 8
